Test in all cases: NCI anticancer screen, dose series, 48 h
Test [1] deals with SK-MEL-2 melanoma.
The subject of test [2] is RPMI-8226 leukemia.
For test [3], the system named is U251 CNS.
Test [4] has as its system NCI-H23 lung.
In test [5] the test system is NCI-H226 lung.
Test [6] deals with SK-OV-3 ovarian.
In test [7] the test system is SW-620 colon.
Test [8] deals with OVCAR-4 ovarian.
For test [9], the system named is HCC-2998 colon.
The test system of test [10] is UACC-257 melanoma.

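All cell lines were grown in 96-well plates and treated with compound for 48 hours. GI50 is the concentration that inhibits growth by half. TGI marks complete inhibition of growth.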

On to `Cc1nc2ccccc2c(=O)n1CC(=O)O`, for which the TGI in [1], in test [2], in test [3], in test [4], in [5] and in [6] was greater than 100 µM each time. Moreover, the TGI in test [7], in test [8], in [9] and in test [10] was greater than 100 µM throughout.
Turning to `CC[C@@H](C(=O)[C@@H](C)[C@@H](O)[C@H](C)CCc1ccc(C)c(O)c1C(=O)O)[C@H]1O[C@](CC)([C@H]2CC[C@](O)(CC)[C@H](C)O2)C[C@@H]1C`, the TGI in test [1] turned out to be 3.82 µM; in test [2] it was 5.28 µM; in test [3] it was 6.33 µM; in test [4], 6.87 µM; in test [5] it was 10.8 µM; in [6], 10.2 µM. The TGI in test [7] worked out at 15.6 µM; in test [8] it was 19.2 µM; in [9], 11.4 µM; in test [10], 11.3 µM.
As for `Cc1ccc(/C(=C/C=C(C#N)C#N)Sc2cc(Cl)ccc2Cl)cc1`, the TGI was greater than 100 µM in [1]; 15 µM in test [3]; 16.1 µM in test [4]; 13.6 µM in test [5]; 27.8 µM in test [6]; 22.5 µM in test [7]. For the same molecule, the TGI in test [8] was found to be 37.7 µM; in [10], 7.8 µM.
Regarding `O=C(Nc1ccc(Cl)cc1)/C(Cc1cccc[n+]1[O-])=N\Nc1ccc([N+](=O)[O-])cc1[N+](=O)[O-]`, the TGI in test [1], in [2], in [3], in [4], in [6] and in test [7] was greater than 100 µM each time. Also, the TGI in test [8], in test [9] and in [10] was greater than 100 µM each time.
Take `CC1(C)CCc2cc3c(-c4ccccc4)cc(=O)oc3cc2O1`: the TGI in [1], in test [2], in test [3], in test [4], in test [5] and in test [6] was greater than 100 µM in each case. In [7], this molecule showed a TGI greater than 100 µM.
Take `O=C1Nc2ccccc2Nc2nc3cccccc-3c21`: the TGI in [1], in test [2], in test [3], in test [4], in test [5] and in test [6] was greater than 100 µM in each case. For the same molecule, the TGI in test [7], in test [8] and in test [9] was greater than 100 µM in each case.
For the molecule `CCOc1ccc2c(ccc(/C=C\c3cc(C)c4cccnc4c3O)[n+]2C)c1`, the TGI in [1] came out at 3.24 µM; in [2], 13.2 µM; in test [3], 4.53 µM; in [4], 43.5 µM; in [5] it was 3.77 µM; in [6], 10.4 µM. Also, the TGI in [7] was 28 µM; in test [8], 18.6 µM; in test [9], greater than 100 µM; in [10], 6.9 µM.
Take `c1ccc2c(c1)nc1n2CSC1`: the TGI in test [1], in test [2], in test [3], in test [4], in [5] and in test [6] was greater than 100 µM in each case. In addition, the TGI in [7] is greater than 100 µM.
For the molecule `O=C(O)c1cc(=O)[nH]c(=S)[nH]1`, the TGI in [1], in test [2], in test [3], in test [4], in [5] and in [6] was greater than 100 µM throughout. The TGI in test [7], in test [8], in test [9] and in test [10] was greater than 100 µM throughout.
For `CN1C2C=C(c3ccccc3)CC1CC2` (stereo not drawn), the TGI in test [1], in test [2], in [3], in test [4], in [6] and in test [7] was greater than 100 µM throughout. The TGI in test [9] and in test [10] was greater than 100 µM each time.
Take `Cc1ccc(S(=O)(=O)Oc2cc(S(=O)(=O)O)cc3cc(S(=O)(=O)O)cc(N)c23)cc1`: the TGI in [1], in test [2], in test [3], in test [4], in test [5] and in test [6] was greater than 100 µM throughout. Also, the TGI in test [7], in test [8], in test [9] and in test [10] was greater than 100 µM each time.
As to `CN1CCN(Cc2ccc(NC(=O)c3ccc(C#N)c(C#Cc4cnc(N)c5ncccc45)c3)cc2C(F)(F)F)CC1`, the GI50 in test [1] was 2.45 µM; in test [2], 2.74 µM; in test [6], 19.3 µM; in test [9], 3.89 µM. In addition, the TGI is greater than 100 µM in [1], 8.59 µM in test [2], 44.6 µM in test [6] and greater than 100 µM in [9].
With `[C-]#[O+].[Cl][Sn]([Cl])[Cl].[Cl][Sn]([Cl])[Cl].[Pt].c1ccncc1`, the TGI in test [1], in [2], in test [3], in test [4], in [5] and in test [6] was greater than 100 µM each time. For the same molecule, the TGI in test [7], in test [8], in test [9] and in [10] was greater than 100 µM in each case.
On to `CC(=O)[O-].CC(=O)[O-].[NH2-].[Pt+2].c1ccncc1`, for which the TGI in test [1], in test [2], in test [3], in [4], in [5] and in [6] was greater than 100 µM throughout. The TGI in [7], in test [8] and in test [9] was greater than 100 µM in each case.
For `Cc1cccc2c(N)c3cccc(C(=O)NCCN(C)C)c3nc12`, the TGI amounted to 0.463 µM in test [1]; 0.128 µM in test [2]; 0.604 µM in test [3]; 1.16 µM in test [4]; 1.48 µM in test [5]; 14.5 µM in test [6]. Besides, the TGI in test [8] came out at 18 µM; in test [9], 0.218 µM; in test [10], 0.658 µM.
As to `CC(C)=CC(=O)OC1C2C(C)C(=O)OC2C(O)C(C)C2C=CC(=O)C21C` (stereo not drawn), the TGI is 11.5 µM in [1]; 11.7 µM in [2]; 8.3 µM in test [3]; 7.59 µM in test [4]; 11.6 µM in [5]; 15.3 µM in [6]. In addition, the TGI was 5.29 µM in test [7], 6.42 µM in test [8], 10.1 µM in test [9] and 8.4 µM in test [10].
For `CC(C)=CCc1c(C)cc2cc3c(c(O)c2c1O)C(O)=CC(=O)C3(CC=C(C)C)C/C=C(\C)CO` (stereo not drawn), the TGI in test [1] worked out at 29.8 µM; in test [2] it was 67.6 µM; in [3] it was 70 µM; in [4], 84.8 µM; in test [5], 77 µM; in [6] it was 71.4 µM. Moreover, the TGI in [7] worked out at 78.9 µM; in test [8], 87 µM; in test [9] it was 88.6 µM; in test [10] it was 82.6 µM.
`CCOP(=O)(OCC)C(Cc1ccc(OC)c(OC)c1)N=C(c1ccccc1)c1ccccc1` (stereo not drawn): the TGI in test [2] was 44.3 µM; in [3] it was greater than 100 µM; in [4] it was greater than 100 µM; in test [5] it was greater than 100 µM; in test [7], greater than 100 µM; in [8], greater than 100 µM. Moreover, the figures for the TGI in [9] and in [10] were 52.4 µM and greater than 100 µM, respectively.
Regarding `CCOc1ccc(/C=C/[N+](=O)[O-])cc1`, the GI50 in test [1] was 17.1 µM; in test [2] it was 2.14 µM; in test [3], 3.1 µM; in test [4] it was 18.5 µM; in [5], 3.06 µM; in test [7], 3.15 µM. Moreover, the values for the GI50 in test [8], in test [9] and in [10] were 23.4 µM, 1.82 µM and 11.2 µM, respectively. Also, the TGI in test [1] is 33 µM; in test [2], 6.17 µM; in [3], 8.83 µM; in [4], greater than 100 µM; in test [5], 11.7 µM; in test [7] it was 11.9 µM. Further, the values for the TGI in test [8], in [9] and in test [10] were greater than 100 µM, 3.94 µM and 24 µM, respectively.
In the case of `O=C(Nc1nc2ccc([N+](=O)[O-])cc2[n+]([O-])n1)C(F)(F)F`, the TGI in test [1] is 65.2 µM; in [2], 41.4 µM; in test [3], greater than 100 µM; in test [4], 80.3 µM; in [5], greater than 100 µM; in test [7], greater than 100 µM. Besides, the results for the TGI in test [8], in test [9] and in [10] were greater than 100 µM, greater than 100 µM and 37.9 µM, respectively.
For the molecule `CC1=C[C@]2(CC(C)C3C(CC4(C)C5CCC6C(C)(C)C(=O)CC[C@@]67C[C@@]57CC[C@]34C)O2)OC1=O` (stereo partly drawn), the TGI in test [1] was greater than 100 µM; in test [2], greater than 100 µM; in test [3], greater than 100 µM; in [4], greater than 100 µM; in test [5], 22 µM; in test [7], greater than 100 µM. Also, the values for the TGI in [8], in test [9] and in test [10] were 57.5 µM, greater than 100 µM and greater than 100 µM, respectively.
